# Earlier results, collected in patent publication US20050026813A1, “Antibiotic-metal complexes in the detection of gram-positive bacteria and other biological analytes” (priority 2003, published 2005).
# Tests used:
# [1] = test system: Mycobacterium smegmatis ATCC 607
# [2] = test system: Enterococcus faecalis subsp. Liquifaciens S-299
# Staphylococcus aureus 56 = details: mice infected with Staphylococcus aureus 56
# Staphylococcus aureus = details: systemic infections in mice
# Streptococcus pyogenes = details: systemic infections in mice
# Strep pneumoniae = details: systemic infections in mice
# [3] = systemic infections in mice, Enterobacter faecalis
# [4] = test system: laboratory strains of aerobic and anaerobic gram-positive bacteria
# [5] = test system: subcutaneous and urinary tract infections
# gram-positive bacteria = details: in words
# [6] = test system: Bacillus subtilis ATCC 6633
# [7] = test system: Streptococcus pyogenes CN10
# [8] = test system: multi-drug resistant strains of Haemophilus influenzae and Moraxella catarrhalis
# [9] = test system: Staphylococcus aureus SR14
# S. aureus SR2030 = S. aureus SR2030 in mice, s.c.
# [10] = test system: Staphylococcus aureus SG511
# [11] = test system: Streptococcus pyogenes 77A
# [12] = test system: Staphylococcus aureus Oxford
# [13] = test system: anaerobes and gram-positive aerobes
molecule,measurement,setting,value
"avoparcin alpha, 49-chloro-4B,50-di-O-alpha-D-mannopyranosyl- [Galacardin A]",MIC,S. aureus Sank 70175,6.25 microgram/ml
same,MIC,[1],25.0 microgram/ml
same,MIC,[2],6.25 microgram/ml
same,in vivo efficacy (ED50),Staphylococcus aureus 56,19.0 mg/kg
CN[C@H](CC(C)C)C(=O)N[C@H]1C(=O)N[C@@H](CC(N)=O)C(=O)N[C@H]2C(=O)NC3C(=O)N[C@@H](C[C@H](OC4C[C@@H](C)C(O)C(C)O4)c4ccc(c(Cl)c4)Oc4cc2cc(c4OC2OC(CO)C(O)C(O)C2O)OC2CC=C(C=C2Cl)C1O)C(=O)N[C@H](C(=O)O)c1cc(O)cc(O)c1-c1cc3ccc1O (stereo partly shown) [S-3662],ED50,Staphylococcus aureus,2.63 mg/kg
same,ED50,Streptococcus pyogenes,0.49 mg/kg
same,ED50,Strep pneumoniae,0.39 mg/kg
same,ED50,[3],0.95 mg/kg
same,activity compared with vancomycin,[4],superior to vancomycin
same,therapeutic efficacy,[5],showed therapeutic efficacy
"vancomycin,22-O-(3-amino-2,3,6-trideoxy-3-C-methyl-alpha-D-arabino-hexopyranosyl)-2′-O-de(3-amino-2,3,6-trideoxy-3-C-methyl-alpha-L-lyxoyranosyl)-10,19-didechloro-2′-O-(6-deoxy-alpha-D-talopyranosyl)- [MM-49721]",MIC,Bacillus subtilis,2 microgram/ml
same,activity against gram-positive bacteria,gram-positive bacteria,good activity
CCCCCCCCCC(=O)NC1C(O[C@@H]2c3cc(Cl)c(c(Cl)c3)Oc3cc4cc(c3OC3OC(CO)C(O)C(O)C3O)Oc3ccc(cc3Cl)[C@@H](O)[C@H]3NC(=O)[C@H](NC)c5ccc(O)c(c5)Oc5cc(O)c(Cl)c(c5)C(NC3=O)C(=O)NC4C(=O)N[C@H]3C(=O)N[C@@H]2C(O)N[C@H](C(=O)O)c2cc(O)cc(O)c2-c2cc3cc(Cl)c2OC2OC(CO)C(O)C(O)C2O)OC(C(=O)O)C(O)C1O (stereo partly shown) [MM 55268],MIC,[6],2 microgram/ml
same,MIC,Micrococcus luteus,2 microgram/ml
same,MIC,Staph. aureus V573 MR,1 microgram/ml
same,MIC,[7],0.25 microgram/ml
C[C@@H]1CN(c2c(F)c(N)c3c(=O)c(C(=O)O)cn(C4CC4)c3c2F)C[C@H](C)N1 [sparfloxacin],in vitro activity,[8],highly active
CNC(CC(C)C)C(=O)NC1C(=O)NC(CC(N)=O)C(=O)NCC2C(=O)NC3CC/C=C\C=C(\O)CCc4c(O)cc(O)cc4C(C(=O)O)NCC(=O)C(CC(OC4CC(C)(N)C(O)C(C)O4)CC/C=C\COC4=C(OC5OC(CO)C(O)C(O)C5OC5CC(C)(N)C(O)C(C)O5)C(=CC2C=C4)OC/C=C\CCC1O)NCC3=O (stereo not shown) [PA-42867],MIC,[9],0.78 microgram/ml
same,ED50,S. aureus SR2030,2.31 mg/kg
same,activity against gram-positive bacteria,gram-positive bacteria,potent activity
des-methyl-balhimycin,MIC,[10],0.1 microgram/ml
same,MIC,S. aureus 285,0.1 microgram/ml
same,MIC,S. aureus 503,0.05 microgram/ml
same,MIC,[11],0.05 microgram/ml
CN[C@H](CC(C)C)C(=O)N[C@H]1C(=O)N[C@@H](CC(N)=O)C(=O)N[C@H]2C(=O)N[C@H]3C(=O)N[C@H](C(=O)N[C@H](C(=O)O)c4cc(O)cc(O)c4-c4cc3ccc4O)[C@H](O)c3ccc(c(Cl)c3)Oc3cc2cc(c3O[C@@H]2O[C@H](CO)[C@@H](O)[C@H](O)[C@H]2O[C@H]2C[C@](C)(N)[C@H](O)[C@H](C)O2)Oc2ccc(cc2Cl)[C@H]1O [vancomycin],MIC,[6],0.25 microgram/ml
same,MIC,Micrococcus luteus,2 microgram/ml
same,MIC,[12],2 microgram/ml
same,MIC,Staph. aureus V573 MR,2 microgram/ml
same,MIC,[7],1 microgram/ml
same,MIC,Strep. faecalis I,2 microgram/ml
"COC(C)C(NC(=O)C1CCCN1C)C1OC(SC)C(O)C(O)C1O (stereo not shown) [BU-2545, 7-O-methyl-4′-de-n-propyllincomycin]",antibacterial activity,[13],exhibits antibacterial activity
